Source: paper PMC6394301, “Evaluation of the anticancer potential of a sulphonamide carbonic anhydrase IX inhibitor on cervical cancer cells” (Journal of Enzyme Inhibition and Medicinal Chemistry, 2019)

Experiments:
PNT1-A cells = assay: WST-1 cell viability assay, PNT1-A; format: cell-based, human; conditions: PNT1-A 24 h
Description: (§1) Since it is an unstable amino acid, the medium was supplemented with L-glutamine immediately prior.
(§2) WST-1 Cell Proliferation test, a product of the Roche Company is a colourimetric assay based on the cleavage of a tetrazolium salt by mitochondrial dehydrogenases to generate formazan in living cells. This assay is simple because only 10 μL of WST-1 reactant is added to 100 μL media on a 96-well plate. The cells were counted with a haemocytometer immediately before the subsequent procedures. The HeLa and PNT1A cells were used for seeding, with 5 × 10^3 cells per well, and then incubated overnight in a humidified atmosphere (37 °C with 5% CO2).
(§3) The next day, WST-1 is added to cells treated with S-1 as a cytotoxic reagent and the incubation is continued for an additional 1−2 h in a humidified atmosphere. One of the advantages of the WST-1 test is that colour change (yellow) can be seen with the naked eye.
(§4) After incubation, the plate was shaken well for 1 min. The absorbance is then measured at 450 nm versus a 650 nm reference by using a plate reader (M5, Spectra MAX) and SoftMax Pro software from Molecular Devices to compare experimental samples to controls.
(§5) IC50 is a measure used to estimate the potency of a material that inhibits a specific biological or biochemical function.

CA-IX = conditions: read-out: Ki value of CA-IX; cited from earlier work
HeLa cells [1] = assay: WST-1 cell viability assay, HeLa; format: cell-based, human; conditions: for IC50: WST-1
Description: as §1, §2, §3, §4, §5
We determined the cell viability of CC cell line HeLa grown in 96-well plates for 24, 48, 72 h and treated with increasing concentrations (0, 2.5, 5, 10, 25, 50, 100, 200 μM) of S-1. Cell viability was evaluated with colourimetric WST-1 assay as described previously tested on the splitting of the tetrazolium salt by mitochondria dehydrogenases in viable cell. […] The number of viable cells was then quantified using trypan blue exclusion.

[2] = Stability of the imine bond in the assay medium; format: physicochemical
HeLa cells [3] = assay: Intracellular total oxidant status (TOS); format: cell-based, human
Description: The amount of cellular TOS was measured using an automated colourimetric reading process advanced by Erel[26]. In this method, the oxidation reaction is increased by the presence of excess glycerol in the reaction medium. Ferric ion forms a coloured complex with chromogen orange in an acidic environment. The spectrophotometrically measurable colour intensity is concerned to the whole level of oxidant molecules existent in the specimen. The assay is calibrated with H2O2, and the results are expressed in terms of micromolar H2O2 per mg protein (μmol H2O2 Equiv./mg protein).

HeLa cells [4] = assay: Oxidative stress index (OSI); format: cell-based, human
Description: Percentage of TOS to TAS amount is taken into account in order to determine the oxidative stress index (OSI)[27]. Oxidative stress index was determined according to the equation outlined below:
OSI = (TOS (μ mol H2O2 equiv/g))/(TAS (μ mol Trolox equiv/g)) × 10

HeLa cells [5] = assay: Intracellular total antioxidant status (TAS); format: cell-based, human; conditions: positive control group
Description: The cellular TAS amount was determined using a new colourimetric assay method, which was improved by Erel[25]. This process is withstanding on the bleaching of the ostensible colour of the 2,2′-azino-bis [3-ethylbenzothiazoline-6-sulfonic acid] (ABTS) radical cation via the action of antioxidants. Upon the addition of a sample, the oxidative reactions initiated by the hydroxyl radicals present in the reaction mixture are inhibited by the antioxidant components of the lysate, preventing colour change and thus providing an effective measure of the TAS value of the lysate. The precision of this test has high accuracy (less than 3% error rate). Analysis results were expressed as mmol Trolox equiv/mg protein.

| Structure (SMILES) | IC50 (PNT1-A cells; Homo sapiens, PNT1A) | Ki (CA-IX) | IC50 (HeLa cells [1]; Homo sapiens, HeLa 24 h) | IC50 (HeLa cells [1]; Homo sapiens, HeLa 48 h) | IC50 (HeLa cells [1]; Homo sapiens, HeLa 72 h) | viability at 200 µM (HeLa cells [1]; Homo sapiens, HeLa, 200 μM, 48 h incubated, read-out: greatest viability loss) | stability in the assay medium [2] | TOS level compared with Cisplatin (HeLa cells [3]; doses 50, 100 µM) | OSI value compared with Cisplatin (HeLa cells [4]; 100 μM concentration) | IC50 (PNT1-A cells) | IC50 (HeLa cells [1]; HeLa 24 h) | IC50 (HeLa cells [1]; HeLa 48 h) | IC50 (HeLa cells [1]; HeLa 72 h) | TAS value (HeLa cells [5]) | TOS level (HeLa cells [3]; positive control group) | OSI value (HeLa cells [4]; positive control, from TOS and TAS) |
| --- | --- | --- | --- | --- | --- | --- | --- | --- | --- | --- | --- | --- | --- | --- | --- | --- |
| NS(=O)(=O)c1ccc(N=Cc2cc(Cl)cc(Cl)c2O)cc1 [S-1, 4-[(3,5-Dichloro-2-hydroxybenzylidene)amino]benzenesulfonamide] | 198 µM | 0.0356 µM | 25.2 µM | 42.9 µM | 84.1 µM | 5.5% | stable | nearly same effect as Cisplatin | too close to the level of Cisplatin |  |  |  |  |  |  |  |
| N.N.[Cl][Pt][Cl] [Cisplatin, cisplatin, reference compound] |  |  |  |  |  |  |  |  |  | 13.4 µM | 28.9 µM | 7.6 µM | 6.1 µM | 0.67 mmol Trolox equiv/mg protein | 11.49 μmol H2O2 Equiv./mg protein | 1.72 |
